Inconclusive results are not listed. The source made the active and inactive calls.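 Rule for the calls: active = fitted curve reaches -35% activity change at up to twice the top valid dose, with every replicate test run active; inconclusive = replicate test runs disagree on the call; inactive = all runs inactive, no -35% crossing or signal rises.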
How the values were obtained:
[1] = inhibition of EBV LMP1-induced NF-kB luciferase – cell-based, HEK293, dry powder, dose response (AID 624373); conditions: HEK293 LMP1-TES2 NF-kB luciferase reporter, 16 h
[2] = system: HEK293 LMP1-TES2 NF-kB luciferase reporter, 16 h; assay: as above

Compound	AC35 [2] [µM]	further results
CCc1sc(C(=O)Nc2ncccc2O)cc1C		activity change, negative = inhibition ([1]; at 26 µM (top of the series)): -12.6% (inactive)
C/C(=N\NC(=S)N1CC2CCC(CC2)C1)c1ccccn1	1.18	
C[C@@H]1CN([C@@H](C)CO)C(=O)c2cc(NC(=O)Nc3ccc(C(F)(F)F)cc3)ccc2O[C@@H](C)CCCCO[C@@H]1CN(C)CC1CCCCC1	1.86	
C[C@@H]1CCCCO[C@@H](CN(C)Cc2ccccc2)[C@H](C)CN([C@H](C)CO)C(=O)c2cc(NC(=O)Nc3ccc4c(c3)OCO4)ccc2O1		activity change, negative = inhibition ([1]; at 26 µM (top of the series)): 10.6% (inactive)
CC(C)=CCN(C(=O)C#Cc1ccccc1)[C@H](CO)c1ccccc1	1.88	
Cc1cc(NC(=O)c2ccc3c(c2)OCCO3)no1		activity change, negative = inhibition ([1]; at 26 µM (top of the series)): 1.38% (inactive)
C[C@@H]1CN([C@@H](C)CO)C(=O)c2cc(NC(=O)Nc3ccc(C(F)(F)F)cc3)ccc2O[C@@H](C)CCCCO[C@H]1CN(C)Cc1ccc(C(F)(F)F)cc1		activity change, negative = inhibition ([1]; at 26 µM (top of the series)): 52.3% (inactive)
Cc1ccnc(NC(=O)c2ccc(C(=O)c3ccccc3)cc2)c1	11	
C[C@H](CO)N1C[C@H](C)[C@@H](CN(C)CC2CCCCC2)OCCCC[C@H](C)Oc2ccc(NC(=O)Nc3cccc4ccccc34)cc2C1=O		activity change, negative = inhibition ([1]; at 26 µM (top of the series)): 27.7% (inactive)
S=C(NCc1ccccn1)N/N=C/c1ccccn1	1.01	
COc1ccc(NC(=O)c2ccc(OC(C)C(=O)O)cc2)cc1Cl (centres undefined)	11.8	
CCCSc1nnc2c3ccccc3n(Cc3ccccc3)c2n1	3.4	
C[C@H](CO)N1C[C@H](C)[C@@H](CN(C)Cc2ccc(-c3ccccc3)cc2)Oc2ccc(NC(=O)Nc3cccc4ccccc34)cc2CC1=O	2.36	
c1ccc(-c2cn3c4c(sc3n2)CCCC4)cc1		activity change, negative = inhibition ([1]; at 26 µM (top of the series)): 7.22% (inactive)
CCc1ccc(/C=C2\SC(=S)N(CCCC(=O)Nc3ccccn3)C2=O)cc1		activity change, negative = inhibition ([1]; at 26 µM (top of the series)): 12.1% (inactive)
O=c1[nH]c(=O)n([C@H]2C[C@H](O)[C@@H](CO)O2)cc1C(F)(F)F	3.09	
COc1ccc(-c2csc3ncnc(NCCN4CCOCC4)c23)cc1		activity change, negative = inhibition ([1]; at 26 µM (top of the series)): 30.3% (inactive)
C/C(=N\NC(=S)Nc1cccc(Cl)c1)c1ccccn1	0.314	
Cc1ccc(NC(=O)C2CCN(S(=O)(=O)c3ccc4c(c3)NC(=O)C(C)S4)CC2)cc1Cl (centres undefined)	1.65	
COCCCNC(=O)C(C)Sc1nnc2c3cc(C)ccc3n(Cc3ccccc3F)c2n1 (centres undefined)	5.01	

Compound	AC35 [2] [µM]	further results
Fc1ccc2c(c1)c1nnc(SCCN3CCOCC3)nc1n2Cc1ccccc1	3.94	
C[C@H]1CCCCO[C@@H](CN(C)CC2CCCCC2)[C@@H](C)CN([C@@H](C)CO)C(=O)c2cc(NC(=O)C3CCCCC3)ccc2O1	9.98	
Nc1ccn([C@@H]2O[C@H](CO)[C@@H](O)C2O)c(=O)n1 (some centres undefined)	8.54	
CC12CCC3C(CC=C4CC(O)CCC43CO)C1CCC2OC(=O)c1ccccc1 (centres undefined)	3.06	
C[C@@H]1CN([C@@H](C)CO)C(=O)c2cc(NC(=O)Nc3ccc4c(c3)OCO4)ccc2O[C@H]1CN(C)CC1CCCCC1	0.895	
C/C(=N\NC(=S)N1CC2CCC(CC2)C1)c1cccc(C)n1	0.637	
C/C(=N\NC(=S)N1CC2CCC(CC2)C1)c1ccncn1	2.5	
C/C(=N\NC(=S)N1CCCC1)c1ccccn1	0.262	
Cc1c(NC(=O)c2cccc(NC(=O)COc3ccccc3C#N)c2)c(=O)n(-c2ccccc2)n1C		activity change, negative = inhibition ([1]; at 26 µM (top of the series)): 23.3% (inactive)
O=C(Nc1cc(C(F)(F)F)cc(C(F)(F)F)c1)Nc1cnn(-c2ccc([N+](=O)[O-])cc2)c1C(F)(F)F		activity change, negative = inhibition ([1]; at 26 µM (top of the series)): 10.5% (inactive)
C[C@@H]1CCCCO[C@H](CN(C)CC2CCCCC2)[C@H](C)CN([C@@H](C)CO)C(=O)c2cc(NC(=O)NC3CCCCC3)ccc2O1		activity change, negative = inhibition ([1]; at 26 µM (top of the series)): 56.5% (inactive)
C/C(=N\NC(=S)N1CCCCC1)c1ccccn1	0.212	
Cc1ccc(S(=O)(=O)Nc2ccc3c(c2)C(=O)N([C@@H](C)CO)C[C@H](C)[C@@H](CN(C)C(=O)CCC(F)(F)F)OCCCC[C@H](C)O3)cc1	0.288	
COc1ccccc1[C@]1(C)ON(c2ccccc2C(F)(F)F)C1=O	8.16	
C/C(=N\NC(=S)N1CCCCC1)c1cccc(C)n1	0.259	
C[C@H](CO)N1C[C@H](C)[C@@H](CN(C)CC2CC2)OCCCC[C@H](C)Oc2ccc(NC(=O)Nc3cccc4ccccc34)cc2C1=O	0.351	
C=C1C[C@]23C[C@@]1(O)CC[C@H]2[C@@]12C=C[C@H](O)[C@@](C)(C(=O)O1)[C@H]2[C@@H]3C(=O)O		activity change, negative = inhibition ([1]; at 15 µM (top of the series)): 2.14% (inactive)
C[C@@H]1CCCCO[C@H](CN(C)C(=O)NC2CCCCC2)[C@H](C)CN([C@@H](C)CO)C(=O)c2cc(NC(=O)C3CCCCC3)ccc2O1	6.42	
O=C1/C(=C/c2ccncc2)SC(=S)N1Cc1ccccc1	18.2	
Oc1cccc(C(Nc2nccs2)c2ccc3cccnc3c2O)c1 (centres undefined)		activity change, negative = inhibition ([1]; at 26 µM (top of the series)): 33.9% (inactive)

Compound	AC35 [2] [µM]	further results
C/C(=N\NC(=S)N1CCC1)c1ccccn1	0.679	
C/C(=N\NC(=S)Nc1ccccc1)c1ccccn1	0.313	
C[C@@H]1CCCCO[C@H](CN(C)C(=O)c2ccccc2)[C@H](C)CN([C@@H](C)CO)C(=O)c2cc(NC(=O)Nc3ccc(F)cc3)ccc2O1		activity change, negative = inhibition ([1]; at 26 µM (top of the series)): 4.26% (inactive)
C/C(=N\NC(=S)N1CCCCCC1)c1ccccn1	0.216	
c1ccc(Cn2c3ccccc3c3nnc(SCCN4CCCCC4)nc32)cc1	18.7	
COc1ccc(-c2cc3nc4n(c(=O)c3s2)CCC4)cc1		activity change, negative = inhibition ([1]; at 26 µM (top of the series)): 23.4% (inactive)
CCN1CCN(C(c2cccnc2)c2cc(Cl)c3cccnc3c2O)CC1 (centres undefined)	3.32	
O=C(CSc1nnc2c3ccccc3n(Cc3ccccc3)c2n1)NCc1ccco1	2.1	
CSC(=S)N/N=C(\C)c1cccc(C)n1	3.01	
CNC[C@@H]1Oc2ccc(NS(=O)(=O)c3cn(C)cn3)cc2CC(=O)N([C@H](C)CO)C[C@@H]1C		activity change, negative = inhibition ([1]; at 26 µM (top of the series)): 37.6% (inactive)
COc1ccc2[nH]c(C(=O)N/N=C/c3ccc(O)cc3O)cc2c1	3.63	
C[C@H](CO)N1C[C@H](C)[C@H](CN(C)C(=O)Nc2ccc(C(F)(F)F)cc2)OCCCC[C@H](C)Oc2ccc(NC(=O)Nc3ccc(F)cc3)cc2C1=O	5.4	
Cc1ccc(S(=O)(=O)NC(CC(C)C)C(=O)NCC(c2ccco2)N2CCCCC2)cc1 (centres undefined)		activity change, negative = inhibition ([1]; at 26 µM (top of the series)): -8.46% (inactive)
CCC(Sc1nnc2c3ccccc3n(Cc3ccc(Br)cc3)c2n1)C(=O)NCCCN1CCOCC1 (centres undefined)	3.2	
CC1CN(C(=O)CSc2nnc3c4ccccc4n(Cc4cccc(Cl)c4)c3n2)CCN1C(=O)c1ccccc1F (centres undefined)	4.36	
C/C=C/C/C=C/CCC(=O)[C@H]1O[C@H]1C(N)=O	12	
C=C1C[C@]23C[C@@]1(O)CC[C@@H]2c1cccc(C)c1[C@@H]3C(=O)O	4.34	
C/C(=N\NC(=S)Nc1ccc(C)cc1)c1ccccn1	0.142	
C/C(=N\NC(=S)Nc1ccccc1Cl)c1ccccn1	0.457	

— PubChem BioAssay AID624373 (Broad Institute, 2012)
